Structures are written as SMILES. Converted amounts (≈) assume the structure as drawn. The source made the active and inactive calls. The calls are words filed in the database; no cut-off is given here.

In data set [1] the target is T1, MAP kinase-activated protein kinase 2 (Homo sapiens, UniProt P49137). Kind of data set: Inhibition of MK2 using 5TAMRA-KKLNRTLSVA-COOH as substrate incubated for 30 mins prior to substrate addition measured after 30 mins by immobilized metal ion affinity-based fluorescence polarization assay in presence of 100 uM ATP. Background: Fluorescence polarisation rises when a labelled molecule tumbles more slowly, as on binding a larger partner.
Target sequence in this assay (P49137 whole entry): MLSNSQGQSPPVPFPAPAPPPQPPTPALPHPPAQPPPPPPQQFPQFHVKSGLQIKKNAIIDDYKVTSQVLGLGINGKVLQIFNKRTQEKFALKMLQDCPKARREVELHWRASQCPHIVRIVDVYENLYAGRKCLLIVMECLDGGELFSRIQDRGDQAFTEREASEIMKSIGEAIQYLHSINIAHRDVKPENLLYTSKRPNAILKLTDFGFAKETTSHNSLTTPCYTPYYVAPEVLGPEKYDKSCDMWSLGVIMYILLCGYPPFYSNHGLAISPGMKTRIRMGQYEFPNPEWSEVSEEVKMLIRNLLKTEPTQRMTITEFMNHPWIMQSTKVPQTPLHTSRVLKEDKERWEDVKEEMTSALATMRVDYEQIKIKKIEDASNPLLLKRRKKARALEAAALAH

The target of data set [2] is T1, MAP kinase-activated protein kinase 2. Kind of data set: Inhibition of MK2 in human THP1 cells assessed as inhibition of LPS-induced HSP27 Ser78 phosphorylation incubated for 60 mins prior to LPS-induction measured after 60 mins. Format: cell-based, THP-1.
Target sequence in this assay (P49137 whole entry): as above
Data set [3] shares this target. Kind of data set: Non-competitive inhibition of MK2 using 5TAMRA-KKLNRTLSVA-COOH as substrate by immobilized metal ion affinity-based fluorescence polarization assay in presence of 1 to 100 uM ATP.
Target sequence in this assay (P49137 whole entry, looked up): as the sequence (P49137 whole entry) above
Data set [4] in a line: Clearance in rat hepatocyte assessed per million cells. Format: ADME, cell-based. The settings on record: hepatocytes, read-out: CLH.
Another data set deals with Caco-2. Kind of data set: Permeability across human Caco2 cells. It is filed as ADME, cell-based. A general note: Caco-2 cells form a polarised layer with tight junctions and transporters.
Data set [5] is described as follows: Solubility of the compound in 10 mM sodium phosphate buffer at pH 7.4. Format: physicochemical.
Data set [6] in a line: Solubility of the compound in 2% DMSO at pH 7.4. It is filed as physicochemical.
Data set [7] in a line: Plasma protein binding in human. The settings on record: read-out: PPB (converted). Format: ADME, cell-free.
Data set [8] can be described thus: Plasma protein binding in rat. As to conditions: read-out: PPB (converted). Format: ADME, cell-free.

In general, IC50 refers to the midpoint of a concentration-inhibition curve. For orientation: EC50 means the concentration at which the effect is half-maximal. On to `Fc1ccc(-c2ccc(C3=NOC(c4ccccc4-c4cncnc4)N3c3ccc(N4CCNCC4)cc3)o2)cc1` (stereo not drawn), for which, in data set [1], the IC50 came out at 50 nM. Further, the EC50 in [2] is 760 nM. In the case of `Clc1ccc(-c2ccc(C3=NOC(c4ccncc4)N3c3ccc(C4CCNCC4)cc3)o2)cc1` (stereo not drawn), in [1], the half-maximal inhibitory concentration (IC50) amounted to 190 nM. `Clc1ccc(-c2ccc(C3=NOC(c4ccccc4-c4cncnc4)N3c3ccc(N4CCNCC4)cc3)o2)cc1Cl` (stereo not drawn): the half-inhibitory concentration (IC50) in data set [1] is 970 nM. Consider `Clc1ccc(-c2ccc(C3ON=C(c4ccccc4)N3c3ccc(N4CCNCC4)cc3)o2)cc1` (stereo not drawn), for which the IC50 in data set [1] is 3700 nM. As to `N#Cc1ccc(-c2ccc(C3=NOCCN3c3ccc(N4CCNCC4)cc3)o2)cc1`, the half-inhibitory concentration (IC50) in data set [1] was determined as 110 nM. For the molecule `Clc1ccc(-c2ccc(-c3nocc3-c3ccc(N4CCNCC4)cc3)o2)cc1`, the IC50 in [1] amounted to 3400 nM. Regarding `N#Cc1ccc(-c2ccc(C3=NOC(c4ccccc4-c4cncnc4)N3c3ccc(N4CCNCC4)cc3)o2)cc1` (stereo in doubt; 38) [listing 1 of 2 here], the inhibition entry in data set [3] was “Active”. Consider `Clc1ccc(-c2ccc(C3=NOC(c4ccncn4)N3c3ccc(N4CCNCC4)cc3)o2)cc1` (stereo not drawn), for which the IC50 in [1] worked out at 60 nM. `Fc1cc(-c2ccc(C3=NOC(c4ccccc4-c4cncnc4)N3c3ccc(N4CCNCC4)cc3)o2)ccc1Cl` (stereo not drawn): the half-maximal inhibitory concentration (IC50) in data set [1] worked out at 220 nM.

Turning to `Clc1cccc(-c2ccc(C3=NOC(c4ccccc4-c4cncnc4)N3c3ccc(N4CCNCC4)cc3)o2)c1` (stereo not drawn), the IC50 in data set [1] came out at 1300 nM. Same read-out and setting: as for `Clc1ccc(-c2ccc(C3=NOC(c4ccncc4)N3Cc3ccc(N4CCNCC4)cc3)o2)cc1` (stereo not drawn), the figure is > 10000 nM; as for `COc1ccc(-c2ccc(C3=NOC(c4ccccc4-c4cncnc4)N3c3ccc(N4CCNCC4)cc3)o2)cc1` (stereo not drawn), 310 nM; as for `O=c1onc(-c2ccc(-c3ccc(Cl)cc3)o2)n1-c1ccc(N2CCNCC2)cc1`, 6200 nM. `Fc1ccc(C2ON=C(c3ccc(-c4ccc(Cl)cc4)o3)N2c2ccc(N3CCNCC3)cc2)cc1` (stereo not drawn): the IC50 in data set [1] turned out to be 160 nM. Regarding `N#Cc1ccc(-c2ccc(C3=NOC(c4ccccc4-c4cncnc4)N3c3ccc(N4CCNCC4)cc3)o2)cc1` (single isomer, unassigned; enantiomer 2), the IC50 in data set [1] amounted to 340 nM. With `Clc1ccc(-c2ccc(C3=NOC(c4cccnc4)N3c3ccc(N4CCNCC4)cc3)o2)cc1` (stereo not drawn), the IC50 in data set [1] is 50 nM. Still for that read-out and setting: as for `c1ccc(C2ON=C(c3ccc(-c4ccncc4)o3)N2c2ccc(N3CCNCC3)cc2)c(-c2cncnc2)c1` (stereo not drawn), the figure is 790 nM; as for `CNC(=O)c1ccc(-c2ccc(C3=NOC(c4ccccc4-c4cncnc4)N3c3ccc(N4CCNCC4)cc3)o2)cc1` (stereo not drawn), > 10000 nM. `Clc1ccc(-c2ccc(C3=NOC(c4cnc[nH]4)N3c3ccc(N4CCNCC4)cc3)o2)cc1` (stereo not drawn): the IC50 in data set [1] was 70 nM. Also, the EC50 in data set [2] was 2400 nM.

With `Clc1ccc(-c2ccc(-c3cc(-c4ccc(N5CCNCC5)cc4)on3)o2)cc1`, the IC50 in [1] was > 10000 nM.

For `N#Cc1ccc(-c2ccc(C3=NOC(c4ccccc4-c4cncnc4)N3c3ccc(N4CCNCC4)cc3)o2)cc1` (stereo in doubt; 33), in data set [1], the IC50 is 8 nM. Moreover, the EC50 in [2] worked out at 1200 nM.

As for `Fc1cc(F)cc(C2ON=C(c3ccc(-c4ccc(Cl)cc4)o3)N2c2ccc(N3CCNCC3)cc2)c1` (stereo not drawn), the 50% inhibitory concentration (IC50) in [1] worked out at 190 nM. On the same count and under the same terms, as for `Fc1ccc(C2ON=C(c3ccc(-c4ccc(Cl)cc4)o3)N2c2ccc(N3CCNCC3)cc2)c(F)c1` (stereo not drawn), the figure is 100 nM; as for `N#Cc1cccc(-c2ccc(C3=NOC(c4ccccc4-c4cncnc4)N3c3ccc(N4CCNCC4)cc3)o2)c1` (stereo not drawn), 5300 nM. With `Fc1ccc(C2ON=C(c3ccc(-c4ccc(Cl)cc4)o3)N2c2ccc(N3CCNCC3)cc2)nc1` (stereo not drawn), in data set [1], the IC50 worked out at 60 nM. Moreover, the EC50 in data set [2] was found to be 3700 nM. As for `FC1(F)CCN(c2ccc(N3C(c4ccc(-c5ccc(Cl)cc5)o4)=NOC3c3ccncc3)cc2)CC1` (stereo not drawn), the IC50 in data set [1] was > 10000 nM. For the molecule `Clc1ccc(-c2ccc(C3=NOC(c4ccccn4)N3c3ccc(N4CCNCC4)cc3)o2)cc1` (stereo not drawn), the IC50 in data set [1] was found to be 30 nM. Also, the EC50 in data set [2] came out at 3000 nM. Regarding `Clc1ccc(-c2ccc(C3=NOCCCN3c3ccc(N4CCNCC4)cc3)o2)cc1`, the IC50 in data set [1] was 1400 nM.

In the case of `Clc1ccc(-c2ccc(C3=NOC(c4ccncc4)N3c3ccc(N4CCNCC4)cc3)o2)cc1` (stereo not drawn), the IC50 in [1] is 30 nM. The EC50 in [2] is 2700 nM.

The term solubility denotes the dissolved amount per volume that the medium holds. Read a high solubility as much dissolved substance. On to `N#Cc1ccc(-c2ccc(C3=NOC(c4ccccc4-c4cncnc4)N3c3ccc(N4CCNCC4)cc3)o2)cc1` (stereo in doubt; 38) [listing 2 of 2 here], for which the hepatocyte CLint in [4] is 35 µL/min/1e6 cells. The permeability entry with Caco-2 was “permeable”. Moreover, the half-inhibitory concentration (IC50) in data set [1] was determined as 6 nM. Also, in data set [2], the EC50 amounted to 170 nM. Also, the solubility in data set [5] and in data set [6] was 20 µM (≈ 11.1 µg/mL) throughout. The fraction unbound in [7] was 0.035; in data set [8] it was 0.031.

The values are drawn from ChEMBL document CHEMBL2034849, “Discovery of a Potent Dihydrooxadiazole Series of Non-ATP-Competitive MK2 (MAPKAPK2) Inhibitors” (ACS Med Chem Lett, 2012).
